The assay concerns the target T1, S1R (Sigma 1 Receptor) (Rattus norvegicus, UniProt Q9R0C9).
T1 construct: endogenous in cells; host or cells: CG-4 oligodendrocyte cell line (rat), lysate
As to the kind of experiment: CETSA target engagement in CG-4 cell lysates. It counts as binding. Particulars: 100 μM, 15 minutes, 52-77° C. How it is done:
FIG. 32. […] Samples were heated at increasing temperatures (52-77° C.) and the soluble fractions were subjected to western blot. […] The immunoblot is representative of 4 biological replicates. Band quantification was performed by ImageJ software and the signal intensity of the thermostable protein was normalized to the respective intensity at 52° C. Protein amount at the other temperatures is represented as % of protein at 52° C. Data are means±the standard error of biological quadruplicates measurements and their statistical significance was evaluated by the Student's t-test (*** p<0.001; **p<0.01; *p<0.05).

T1 sequence (Q9R0C9 whole entry): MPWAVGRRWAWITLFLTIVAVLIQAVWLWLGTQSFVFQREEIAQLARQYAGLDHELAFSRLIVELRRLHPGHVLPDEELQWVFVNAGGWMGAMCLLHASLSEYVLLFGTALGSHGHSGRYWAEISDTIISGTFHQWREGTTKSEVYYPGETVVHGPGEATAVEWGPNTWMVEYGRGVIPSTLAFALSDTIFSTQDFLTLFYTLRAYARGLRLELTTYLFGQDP

As for `O=C(c1ccc(CN2CCOCC2)cc1)N1CCN(C2CC2)CC1` [Bavisant], the “thermostability of S1R (CETSA, western blot)” value was “thermostability of S1R in the presence of Bavisant”.
